Here are results for eleven molecules from ChEMBL document CHEMBL5465560, “Selectivity Literature for EUbOPEN Chemogenomic Library” (2024).

The target of assay [1] is Glycogen synthase kinase-3 beta (Homo sapiens, UniProt P49841). Briefly: Selectivity interaction (Kinase panel (KiNativ target engagement assay in Jurkat cells)) EUB0001635a GSK3B. As to conditions: Selectivity number of off-targets 0.0, Selectivity number of targets 233.0, Source Knowledge https://www.sciencedirect.com/science/article/pii/S2451945619300674?via%3Dihub, at 1 µM. The format is cell-based.

Assay [2] concerns the target T1, Tyrosine-protein kinase Tec (Homo sapiens) (UniProt P42680).
T1 sequence (whole entry): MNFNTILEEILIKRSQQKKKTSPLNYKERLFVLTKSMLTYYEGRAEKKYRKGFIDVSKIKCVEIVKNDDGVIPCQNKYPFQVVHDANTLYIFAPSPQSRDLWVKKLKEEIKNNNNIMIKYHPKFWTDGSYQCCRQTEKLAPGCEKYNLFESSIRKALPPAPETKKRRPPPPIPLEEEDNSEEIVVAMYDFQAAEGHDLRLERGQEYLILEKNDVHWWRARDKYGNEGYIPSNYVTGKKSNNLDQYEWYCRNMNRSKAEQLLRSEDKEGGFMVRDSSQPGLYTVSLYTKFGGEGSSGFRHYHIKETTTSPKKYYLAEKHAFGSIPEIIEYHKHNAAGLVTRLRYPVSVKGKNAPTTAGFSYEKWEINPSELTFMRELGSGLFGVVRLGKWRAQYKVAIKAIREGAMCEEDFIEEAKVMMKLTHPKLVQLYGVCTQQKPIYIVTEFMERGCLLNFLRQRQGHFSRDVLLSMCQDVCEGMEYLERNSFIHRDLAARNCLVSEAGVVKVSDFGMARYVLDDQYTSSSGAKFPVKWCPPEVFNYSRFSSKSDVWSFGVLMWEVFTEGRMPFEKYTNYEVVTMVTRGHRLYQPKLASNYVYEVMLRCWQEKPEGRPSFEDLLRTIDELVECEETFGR
Briefly: Selectivity interaction (KinomeScan (DiscoverX)) EUB0000607a TEC. The following applies: at 10 µM.

The test system of assay [3] is Tyrosine-protein kinase ABL1 (Homo sapiens), P00519 [E255K]. Nature of the assay: (§1) Selectivity interaction (KinomeScan (DiscoverX)) EUB0000607a ABL1. As to conditions: at 10 µM.
Assay [4] has as its target Tyrosine-protein kinase ABL1 (Homo sapiens, UniProt P00519). The assay is described as §1. The following applies: at 10 µM.
In assay [5] the test system is Tyrosine-protein kinase ABL1 (Homo sapiens), P00519 [F317I]. The description is as §1. The following applies: at 10 µM.
The subject of assay [6] is Tyrosine-protein kinase ABL1 (Homo sapiens), P00519 [H396P]. The description is as §1. The following applies: at 10 µM.
In assay [7] the test system is Tyrosine-protein kinase ABL1 (Homo sapiens), P00519 [F317L]. Described as §1. As to conditions: at 10 µM.
Assay [8] relates to Tyrosine-protein kinase ABL1 (Homo sapiens), P00519 [M351T]. The description is as §1. The following applies: at 10 µM.
The test system of assay [9] is Tyrosine-protein kinase ABL1 (Homo sapiens), P00519 [Y253F]. The description is as §1. As to conditions: at 10 µM.
The subject of assay [10] is Tyrosine-protein kinase ABL1 (Homo sapiens), P00519 [Q252H]. The description is as §1. As to conditions: at 10 µM.
Assay [11] concerns Tyrosine-protein kinase ABL1 (Homo sapiens), P00519 [T315I]. The description is as §1. The following applies: at 10 µM.
The target in assay [12] is Wee1-like protein kinase (Homo sapiens) (UniProt P30291). As to conditions: at 10 µM.
In assay [13] the target is Mitogen-activated protein kinase 3 (Homo sapiens, UniProt P27361). As to conditions: at 10 µM.
Sequence of Mitogen-activated protein kinase 3 (P27361 whole entry): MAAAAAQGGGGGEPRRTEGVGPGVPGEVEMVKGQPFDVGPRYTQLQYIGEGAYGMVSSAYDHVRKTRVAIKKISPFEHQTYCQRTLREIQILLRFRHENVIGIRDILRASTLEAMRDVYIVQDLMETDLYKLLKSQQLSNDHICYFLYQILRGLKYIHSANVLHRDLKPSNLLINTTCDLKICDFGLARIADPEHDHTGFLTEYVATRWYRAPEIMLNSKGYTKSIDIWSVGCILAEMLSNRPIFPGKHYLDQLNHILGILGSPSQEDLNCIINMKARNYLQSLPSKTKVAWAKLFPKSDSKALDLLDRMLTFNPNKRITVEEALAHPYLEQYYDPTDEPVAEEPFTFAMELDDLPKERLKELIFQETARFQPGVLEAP
Assay [14] deals with Receptor tyrosine-protein kinase erbB-4 (Homo sapiens, UniProt Q15303). Briefly: Selectivity interaction (KinomeScan (DiscoverX)) EUB0000655a ERBB4. As to conditions: at 10 µM.
Sequence of Receptor tyrosine-protein kinase erbB-4 (Q15303 whole entry): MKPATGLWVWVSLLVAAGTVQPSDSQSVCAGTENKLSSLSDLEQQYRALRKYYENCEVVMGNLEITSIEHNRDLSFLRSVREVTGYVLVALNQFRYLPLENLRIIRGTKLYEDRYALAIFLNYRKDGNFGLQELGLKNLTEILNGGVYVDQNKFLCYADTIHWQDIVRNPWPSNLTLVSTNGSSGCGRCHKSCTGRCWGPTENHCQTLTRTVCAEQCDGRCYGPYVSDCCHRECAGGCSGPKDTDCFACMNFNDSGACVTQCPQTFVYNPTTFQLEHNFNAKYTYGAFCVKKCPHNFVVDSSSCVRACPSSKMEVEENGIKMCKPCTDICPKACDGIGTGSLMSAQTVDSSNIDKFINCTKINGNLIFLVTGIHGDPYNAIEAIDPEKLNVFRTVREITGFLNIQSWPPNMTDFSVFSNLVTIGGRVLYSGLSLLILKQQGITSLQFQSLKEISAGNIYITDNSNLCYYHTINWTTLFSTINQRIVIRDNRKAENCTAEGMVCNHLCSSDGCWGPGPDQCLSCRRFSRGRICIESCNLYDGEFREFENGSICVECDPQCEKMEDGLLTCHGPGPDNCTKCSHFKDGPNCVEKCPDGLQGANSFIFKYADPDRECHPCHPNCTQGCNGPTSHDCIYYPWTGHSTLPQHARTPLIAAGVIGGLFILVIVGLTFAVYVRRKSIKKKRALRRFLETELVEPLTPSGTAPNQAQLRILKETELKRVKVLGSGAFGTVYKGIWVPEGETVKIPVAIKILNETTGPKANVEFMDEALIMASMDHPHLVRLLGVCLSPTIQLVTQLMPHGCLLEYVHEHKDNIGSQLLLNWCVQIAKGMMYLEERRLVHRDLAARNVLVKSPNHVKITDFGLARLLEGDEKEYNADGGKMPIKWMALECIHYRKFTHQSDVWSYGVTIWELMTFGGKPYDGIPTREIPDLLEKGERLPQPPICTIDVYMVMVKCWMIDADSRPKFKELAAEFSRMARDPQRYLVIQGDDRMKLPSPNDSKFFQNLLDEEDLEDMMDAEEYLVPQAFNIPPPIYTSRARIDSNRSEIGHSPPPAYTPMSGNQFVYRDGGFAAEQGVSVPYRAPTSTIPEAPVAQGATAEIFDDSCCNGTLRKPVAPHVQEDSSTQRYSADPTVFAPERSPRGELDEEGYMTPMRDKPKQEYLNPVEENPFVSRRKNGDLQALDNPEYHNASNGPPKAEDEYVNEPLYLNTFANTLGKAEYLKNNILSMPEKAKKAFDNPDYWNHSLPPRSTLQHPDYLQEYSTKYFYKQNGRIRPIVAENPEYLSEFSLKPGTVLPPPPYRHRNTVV
Assay [15] addresses T2, Serine/threonine-protein kinase BRSK2 (Homo sapiens) (UniProt Q8IWQ3).
T2 sequence (whole entry): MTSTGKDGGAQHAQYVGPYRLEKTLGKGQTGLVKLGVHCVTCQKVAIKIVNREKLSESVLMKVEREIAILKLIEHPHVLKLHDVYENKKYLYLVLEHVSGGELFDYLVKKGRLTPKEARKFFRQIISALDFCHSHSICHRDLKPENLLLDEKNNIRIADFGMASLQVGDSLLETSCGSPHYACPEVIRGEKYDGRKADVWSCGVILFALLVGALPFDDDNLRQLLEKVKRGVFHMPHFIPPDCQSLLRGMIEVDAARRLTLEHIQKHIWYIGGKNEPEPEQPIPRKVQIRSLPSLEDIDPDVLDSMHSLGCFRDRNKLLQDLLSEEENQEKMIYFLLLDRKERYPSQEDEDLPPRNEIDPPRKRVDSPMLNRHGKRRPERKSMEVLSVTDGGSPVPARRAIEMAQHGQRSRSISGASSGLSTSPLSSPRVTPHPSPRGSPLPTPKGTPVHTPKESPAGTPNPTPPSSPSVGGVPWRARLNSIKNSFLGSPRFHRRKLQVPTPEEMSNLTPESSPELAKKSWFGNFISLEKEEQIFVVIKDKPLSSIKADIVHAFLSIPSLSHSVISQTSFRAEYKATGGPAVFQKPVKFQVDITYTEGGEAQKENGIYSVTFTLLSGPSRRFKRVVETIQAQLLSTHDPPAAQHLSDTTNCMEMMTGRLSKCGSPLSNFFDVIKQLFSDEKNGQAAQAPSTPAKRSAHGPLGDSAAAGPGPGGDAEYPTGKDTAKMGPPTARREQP
Nature of the assay: Selectivity interaction (KinomeScan (DiscoverX)) EUB0000655a BRSK2. The following applies: at 10 µM.

In assay [16] the target is Serine/threonine-protein kinase Chk2 (Homo sapiens) (UniProt O96017). Nature of the assay: Selectivity interaction (KinomeScan (DiscoverX)) EUB0001079a CHEK2. As to conditions: at 1 µM.
Sequence of Serine/threonine-protein kinase Chk2 (Homo sapiens) (O96017 whole entry): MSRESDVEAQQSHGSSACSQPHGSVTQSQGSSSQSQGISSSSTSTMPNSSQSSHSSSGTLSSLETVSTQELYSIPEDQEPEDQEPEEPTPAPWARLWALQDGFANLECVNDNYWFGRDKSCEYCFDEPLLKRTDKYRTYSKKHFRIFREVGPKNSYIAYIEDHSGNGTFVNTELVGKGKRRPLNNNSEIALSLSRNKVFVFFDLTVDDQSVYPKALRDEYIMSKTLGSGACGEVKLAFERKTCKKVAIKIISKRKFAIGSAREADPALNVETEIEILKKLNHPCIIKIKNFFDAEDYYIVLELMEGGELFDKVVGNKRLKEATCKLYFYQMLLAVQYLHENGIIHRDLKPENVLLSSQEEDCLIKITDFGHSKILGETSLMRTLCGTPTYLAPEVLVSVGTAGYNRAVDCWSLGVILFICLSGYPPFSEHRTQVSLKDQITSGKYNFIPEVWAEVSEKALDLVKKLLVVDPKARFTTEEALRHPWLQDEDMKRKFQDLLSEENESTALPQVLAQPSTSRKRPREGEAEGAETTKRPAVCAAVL
Assay [17] addresses Platelet-derived growth factor receptor alpha (Homo sapiens, UniProt P16234). Briefly: Selectivity interaction (Kinase panel (Invitrogen)) EUB0000639a PDGFRA. As to conditions: at 200 nM.
Assay [18] deals with Serine/threonine-protein kinase PLK1 (Homo sapiens, UniProt P53350). Briefly: Selectivity interaction (KinomeScan (DiscoverX)) EUB0000695a PLK1. As to conditions: at 100 nM.
In assay [19] the target is LIM domain kinase 1 (Homo sapiens) (UniProt P53667). Briefly: Selectivity interaction (KinomeScan (DiscoverX)) EUB0000695a LIMK1. The following applies: at 100 nM.
Sequence of LIM domain kinase 1 (Homo sapiens) (P53667 whole entry, looked up, the tested form may be a part): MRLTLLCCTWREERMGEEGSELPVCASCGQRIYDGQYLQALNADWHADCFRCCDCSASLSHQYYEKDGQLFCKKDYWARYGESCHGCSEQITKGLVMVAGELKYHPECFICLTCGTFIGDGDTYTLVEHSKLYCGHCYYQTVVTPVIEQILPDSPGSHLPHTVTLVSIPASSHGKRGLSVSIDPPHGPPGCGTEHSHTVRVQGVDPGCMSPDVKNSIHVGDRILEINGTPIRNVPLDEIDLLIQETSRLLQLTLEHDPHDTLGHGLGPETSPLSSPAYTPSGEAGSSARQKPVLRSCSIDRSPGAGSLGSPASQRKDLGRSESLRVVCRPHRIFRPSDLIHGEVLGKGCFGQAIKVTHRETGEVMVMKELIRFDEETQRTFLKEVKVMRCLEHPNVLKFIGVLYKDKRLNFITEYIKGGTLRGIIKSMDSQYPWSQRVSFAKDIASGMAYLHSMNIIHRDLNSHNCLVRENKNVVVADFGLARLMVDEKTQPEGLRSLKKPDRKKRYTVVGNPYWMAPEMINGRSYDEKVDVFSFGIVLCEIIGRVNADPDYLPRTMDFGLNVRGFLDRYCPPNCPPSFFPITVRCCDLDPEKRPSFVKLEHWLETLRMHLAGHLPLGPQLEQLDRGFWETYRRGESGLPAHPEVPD
Assay [20] has as its target Microtubule-associated serine/threonine-protein kinase 1 (Homo sapiens) (UniProt Q9Y2H9). Nature of the assay: Selectivity interaction (KinomeScan (DiscoverX)) EUB0000695a MAST1. The following applies: at 100 nM.
Assay [21] has as its target Cannabinoid receptor 2 (Homo sapiens) (UniProt P34972). Briefly: Selectivity interaction (Eurofins CEREP Diversity Profile (receptors and ion channels)) EUB0000279b CNR2. As to conditions: at 10 µM.
The target of assay [22] is Histone acetyltransferase KAT2B (Homo sapiens, UniProt Q92831). Briefly: Selectivity interaction (Bromodomain panel (DSF asssay)) EUB0000270b KAT2B.
For assay [23], the target named is Serine/threonine-protein kinase PLK3 (Homo sapiens, UniProt Q9H4B4). Briefly: Selectivity interaction (KinomeScan (DiscoverX)) EUB0000092b PLK3. The following applies: at 10 µM.
The target of assay [24] is Aurora kinase B (Homo sapiens, UniProt Q96GD4). Briefly: Selectivity interaction (Kinase panel (DSF assay)) EUB0001559a AURKB.
Sequence of Aurora kinase B (Q96GD4 whole entry): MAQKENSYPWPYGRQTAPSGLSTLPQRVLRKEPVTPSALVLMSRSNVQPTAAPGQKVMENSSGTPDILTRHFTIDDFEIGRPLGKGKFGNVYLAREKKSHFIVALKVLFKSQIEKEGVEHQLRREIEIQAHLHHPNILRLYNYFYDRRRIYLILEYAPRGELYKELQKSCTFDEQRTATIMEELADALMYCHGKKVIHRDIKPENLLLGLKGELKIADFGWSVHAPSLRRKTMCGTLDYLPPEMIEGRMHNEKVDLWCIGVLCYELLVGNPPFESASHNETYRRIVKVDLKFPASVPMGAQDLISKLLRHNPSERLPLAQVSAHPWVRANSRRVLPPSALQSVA

Sequence of Platelet-derived growth factor receptor alpha (P16234 whole entry): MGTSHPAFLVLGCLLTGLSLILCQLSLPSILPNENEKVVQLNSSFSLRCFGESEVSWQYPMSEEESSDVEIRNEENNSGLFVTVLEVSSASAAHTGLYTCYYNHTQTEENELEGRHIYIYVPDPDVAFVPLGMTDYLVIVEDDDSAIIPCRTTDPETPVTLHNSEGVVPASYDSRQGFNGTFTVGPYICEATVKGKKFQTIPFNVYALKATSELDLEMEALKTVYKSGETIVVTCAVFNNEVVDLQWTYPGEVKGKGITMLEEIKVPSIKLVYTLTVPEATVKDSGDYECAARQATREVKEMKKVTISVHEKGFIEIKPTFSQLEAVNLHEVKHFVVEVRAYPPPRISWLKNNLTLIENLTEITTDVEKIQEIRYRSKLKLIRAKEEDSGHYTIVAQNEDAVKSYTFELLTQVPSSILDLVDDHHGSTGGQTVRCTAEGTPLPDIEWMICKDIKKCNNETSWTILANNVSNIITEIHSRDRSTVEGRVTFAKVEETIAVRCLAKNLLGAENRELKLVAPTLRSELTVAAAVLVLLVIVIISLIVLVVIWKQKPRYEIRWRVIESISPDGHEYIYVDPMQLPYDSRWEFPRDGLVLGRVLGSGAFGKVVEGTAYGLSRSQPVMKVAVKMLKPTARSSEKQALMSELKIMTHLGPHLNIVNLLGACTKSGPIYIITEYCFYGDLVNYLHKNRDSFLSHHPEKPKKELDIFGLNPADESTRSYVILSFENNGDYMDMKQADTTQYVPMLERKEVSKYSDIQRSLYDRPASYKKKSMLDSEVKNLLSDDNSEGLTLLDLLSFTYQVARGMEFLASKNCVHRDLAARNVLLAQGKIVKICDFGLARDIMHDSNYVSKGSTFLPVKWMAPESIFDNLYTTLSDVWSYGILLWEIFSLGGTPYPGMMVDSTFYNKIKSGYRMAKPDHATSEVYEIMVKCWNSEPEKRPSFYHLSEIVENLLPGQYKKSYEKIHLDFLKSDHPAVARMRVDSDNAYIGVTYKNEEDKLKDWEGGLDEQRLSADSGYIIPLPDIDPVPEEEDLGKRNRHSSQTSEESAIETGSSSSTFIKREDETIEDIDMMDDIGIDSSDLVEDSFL
Sequence of Cannabinoid receptor 2 (Homo sapiens) (P34972 whole entry): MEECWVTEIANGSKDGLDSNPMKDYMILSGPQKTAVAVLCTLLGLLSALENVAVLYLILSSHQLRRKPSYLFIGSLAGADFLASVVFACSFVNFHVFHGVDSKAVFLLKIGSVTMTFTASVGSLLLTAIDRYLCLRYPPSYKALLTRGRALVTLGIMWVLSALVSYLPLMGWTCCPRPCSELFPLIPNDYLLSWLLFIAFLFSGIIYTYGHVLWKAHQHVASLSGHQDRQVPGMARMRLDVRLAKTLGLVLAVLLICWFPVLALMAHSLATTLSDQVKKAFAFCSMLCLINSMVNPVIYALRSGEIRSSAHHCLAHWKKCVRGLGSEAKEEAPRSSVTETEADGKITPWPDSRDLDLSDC

Turning to `C=CC(=O)Nc1ccc(C(=O)Nc2[nH]nc3c2CN(C(=O)N[C@H](CN(C)C)c2ccccc2)C3(C)C)cc1`, in assay [1], the % of engagement was -4.3%.

As to `CNC(=O)Nc1ccc(-c2nc(N3CC4CCC(C3)O4)c3cnn(C4CCC5(CC4)OCCO5)c3n2)cc1`, the % of control in assay [2] was 84%; in [3], 100%; in assay [4], 100%; in [5], 100%; in assay [6] it was 100%; in assay [7], 100%. In addition, the % of control in assay [8] worked out at 100%; in [9], 99%; in assay [10], 100%; in [11], 83%.

As for `Cc1cc([C@@H](C)Nc2ccccc2C(=O)O)c2nc(N3CCOCC3)cc(=O)n2c1` [AZD-6482], the values for the % of control in assay [12] and in assay [13] were 100% and 95%, respectively.

Turning to `CN(C)CCOc1ccc(-c2nc(-c3ccncc3)c(-c3ccc4c(c3)CC/C4=N\O)[nH]2)cc1`, the figures for the % of control in assay [14] and in [15] were 73% and 88%, respectively.

Consider `Nc1cnc(N2CCc3cc(S(=O)(=O)Nc4c(F)cc(Cl)cc4F)cc(N4CCCC4=O)c32)nc1` [TP-020n], for which the % of control in assay [16] stood at 92%.

As to `CC[C@@H]1[C@H](F)C(=O)N[C@@H]1COc1nccc2cc(C(N)=O)c(OC)cc12` [ZIMLOVISERTIB], the % of inhibition in assay [17] turned out to be 1.87%.

Regarding `Cc1cc(F)c(C(=O)Nc2cccc(-c3nncn3C(C)C)n2)cc1-n1cnc(C2CC2)c1`, the % of control came out at 100% in [18], 99% in assay [19] and 87% in [20].

In turn, `CC(=O)c1cc(-c2ccccc2OCC2CC2)c2ncccn12` showed a % of control in assay [21] of 107%.

The molecule `Cc1cc(CN)cc(C)c1-c1ncn(C)c1-c1cncn1C` yielded a dTM in assay [22] of -0.88 K.

As to `CCC(=O)N1CCN(c2ccc(-n3c(=O)ccc4cnc5ccc(-c6cnc7ccccc7c6)cc5c43)cc2C(F)(F)F)CC1`, the % of control in assay [23] was 87%.

`CN(C(=O)c1cnn2cccnc12)c1cc2c(cc1N1CCOCC1)C(=O)N(C[C@@H](F)C(C)(C)O)C2` showed a dTM in [24] of -1.6 K.
